Literature values as cited in patent publication US20070014855A1, “STABLE DESLORATADINE COMPOSITIONS” (priority 2005, published 2007).

Clc1ccc2c(c1)CCc1cccnc1C2=C1CCNCC1 [Desloratadine, 8-chloro-6,11-dihydro-11-(4-piperidylidene)-5H-benzo[5,6]-cyclohepta[1,2-b]pyridine]
solubility in ethanol (ethanol): very soluble | solubility in propylene glycol (propylene glycol): very soluble | solubility in water (water): slightly soluble
